Measurements: patent US20240209028A1, “CNP COMPOUNDS” (priority 2022, published 2024)
Starred links: 1 amine or outer side, 2 acyl side, 3 side chain; linkers in the order of their positions; H or OH if unused. Positions of bridges follow the written chain, without caps; N, C: chain ends. Residues, ends and D or L forms follow the SMILES beside them. *: point of attachment. C18 diacid = O=C(O)CCCCCCCCCCCCCCCCC(=O)*; γGlu = O=C(O)[C@H](CCC(=O)[*:2])N[*:1]; AEEA = NCCOCCOCC(=O)O

Key:
[1] = Accelerated chemical stability (RP-UPLC recovery and LCMS degradation pattern, 37° C.); type: physicochemical; parameters: Isomers TZ / Isomers 2 W / Loss of 18 amu TZ / Loss of 18 amu 2 W / Fragments TZ / Fragments 2 W / Fragments 1 W / Fragments 3 W / Fragments 4 W / Fragments 5 W / Fragments 6 W / Others 1 W / Others 3 W / Others 4 W / Others 5 W / Others 6 W / Isomers 1 W / Isomers 3 W / Isomers 4 W / Isomers 5 W / Isomers 6 W / Loss of 18 amu 1 W / Loss of 18 amu 3 W / Loss of 18 amu 4 W / Loss of 18 amu 5 W / Loss of 18 amu 6 W: unit not given here; conditions: LCMS; for Fragments 2 W / Isomers 2 W / Loss of 18 amu 2 W / Others 2 W: 2 weeks at 37° C.; for Fragments TZ / Isomers TZ / Loss of 18 amu TZ / Others TZ: time zero
Protocol: In order to determine the chemical stability of CNP compounds in formulation, samples of CNP compounds in buffer were exposed to accelerated chemical degradation by heating. The stability of a given peptide was assessed by measuring recovery of intact peptide by quantification by RP-UPLC. To assess the chemical degradation pattern samples were also analysed by LC-MS.
Sample preparation: Samples for the 2 week study were prepared according to the principles described in Example 5.
Samples for the 6 week study were prepared by dissolving lyophilized peptide in buffer (8 mM phosphate, 250 mM glycerol, pH 7.4) to a nominal peptide concentration of 5000 nmol/ml followed by pH adjustment with 0.1 N HCl to pH 6.5.
Incubation: For the 2 week study a time-zero (TZ) sample was pulled and stored at −18° C. and the remaining volume was incubated at 37° C. Samples were pulled and stored at −18° C. after 2 weeks of incubation. Frozen samples were thawed, diluted to about 200 nmol/mL and the extent of chemical degradation was determined using LCMS as described.
For the 6 week study a time-zero (TZ) sample was pulled and stored at −18° C. and the remaining volume was incubated at 37° C. Samples were pulled on a weekly basis and stored at −18° C. until the last sampling time point at 6 weeks. Frozen samples were thawed, diluted to about 200 nmol/mL and the extent of chemical degradation was determined using RP-UPLC and LCMS as described.
Analysis of peptide recovery by RP-UPLC: The RP-UPLC method was performed on a Waters ACQUITY H-CLASS UPLC system fitted with a PDA detector. Separation was carried out on an ACQUITY UPLC BEH C8 Column (130 Å, 1.7 μm, 2.1 mm×150 mm) operating at a column temperature of 50° C. with eluent A (19.59 mM NH4H2PO4 41.71 mM (NH4)2HPO4, pH 6.5 and MeCN 9:1 v:v) and eluent B (80% MeCN in water). UV-detection was carried out at 214 nm. The analysis was performed by injection of 3 μL of sample onto the column which was eluted with a 1-step linear gradient of eluents A and B from 27 to 30% B over 20 minutes followed by a wash at 95% B over 2 minutes followed by a re-equilibration phase for 7 minutes at a constant flow rate of 0.3 mL/min. This yielded an analysis time of 30 minutes per sample. The area of the peak corresponding to intact CNP compound was given on a percentage scale relative to the total peptide peak area.
Analysis of chemical degradation patterns by LCMS: Samples were analysed on a […] UPLC from Thermo Scientific, using a Waters Acquity C18 reversed-phase column, 300 Å, […] particles 1 mm×150 mm. The compounds were separated by a linear gradient of solvent B from 5% to 55% over 48 minutes, using solvent A: water, 0.1% formic acid with 0.02% TFA and solvent B: acetonitrile, 0.1% formic acid with 0.02% TFA. Mass spectra were acquired by a Q Exactive Plus hybrid Quadrupole-Orbitrap mass spectrometer, BioPharma option (Thermo Scientific) interfaced with H-ESI II ion source. Data acquisitions were performed with a m/z 500 to 2000 scan range and a resolution of 30000.
The data list was aggregated into a summed table of the compounds. The table headers were defined as follows: […]
Results: The results from LCMS analysis of a 2 week accelerated degradation study on several CNP compounds of the present invention are summarised in Table 12. The results from RP-UPLC and LCMS analysis of a 6 week accelerated degradation study on CNP compound 9482 (Chem. 137) is summarised in Table 13 and Table 14 respectively.

neprilysin (NEP) = neprilysin (NEP) (Homo sapiens, UniProt P08473); experiment: In vitro neprilysin stability; conditions: recombinant human neprilysin (rhNEP), pH 7.4
neprilysin (NEP), sequence (P08473 whole entry): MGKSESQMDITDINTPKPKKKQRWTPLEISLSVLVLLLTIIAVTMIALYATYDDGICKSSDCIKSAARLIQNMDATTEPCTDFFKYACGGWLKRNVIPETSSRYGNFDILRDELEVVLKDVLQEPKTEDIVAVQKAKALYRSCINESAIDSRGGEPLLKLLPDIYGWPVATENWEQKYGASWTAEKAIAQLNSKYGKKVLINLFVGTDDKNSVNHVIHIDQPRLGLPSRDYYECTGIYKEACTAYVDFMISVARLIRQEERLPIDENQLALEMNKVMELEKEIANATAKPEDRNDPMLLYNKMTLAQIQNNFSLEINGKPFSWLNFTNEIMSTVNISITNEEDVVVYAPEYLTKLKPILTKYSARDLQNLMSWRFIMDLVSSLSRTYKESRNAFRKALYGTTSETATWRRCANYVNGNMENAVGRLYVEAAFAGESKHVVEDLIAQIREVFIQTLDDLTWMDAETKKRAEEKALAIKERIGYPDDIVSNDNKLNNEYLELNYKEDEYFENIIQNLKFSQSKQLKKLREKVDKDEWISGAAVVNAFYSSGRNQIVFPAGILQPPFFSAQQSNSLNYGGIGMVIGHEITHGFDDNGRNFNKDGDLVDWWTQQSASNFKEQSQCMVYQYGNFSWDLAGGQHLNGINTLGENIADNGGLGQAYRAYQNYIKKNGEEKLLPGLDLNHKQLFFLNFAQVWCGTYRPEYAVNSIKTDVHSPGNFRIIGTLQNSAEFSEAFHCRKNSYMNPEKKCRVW

[2] = 8 mM sodium phosphate, 250 mM glycerol, pH 6.5
[3] = 5 mM sodium acetate, 250 mM glycerol, pH 4
[4] = 6 week study, 3 weeks at 37° C.
[5] = 6 week study, 4 weeks at 37° C.
[6] = 6 week study, 5 weeks at 37° C.
[7] = 6 week study, 6 weeks at 37° C.

With CC[C@H](C)[C@@H]1NC(=O)[C@H](CCCNC(=N)N)NC(=O)[C@H](CC(=O)O)NC(=O)[C@H](CC(C)C)NC(=O)[C@@H]2CCCN2C(=O)[C@H](CC(C)C)NC(=O)CNC(=O)[C@H](Cc2ccccc2)NC(=O)[C@@H](NC(=O)CNC(=O)[C@H](CCC(N)=O)NC(=O)[C@H](CO)NC(=O)[C@H](CC(C)C)NC(=O)CNC(=O)[C@H](CCCCN)NC(=O)[C@H](CCCCN)NC(=O)[C@H](CCC(N)=O)NC(=O)[C@H](C)NC(=O)CNC(=O)[C@H](CCCCN)NC(=O)[C@H](Cc2ccc(O)cc2)NC(=O)[C@H](CCCCN)NC(=O)[C@H](CCCNC(=N)N)NC(=O)[C@H](C)NC(=O)COCCOCCNC(=O)COCCOCCNC(=O)COCCOCCNC(=O)COCCOCCNC(=O)CC[C@H](NC(=O)CC[C@H](NC(=O)CC[C@H](NC(=O)CC[C@H](NC(=O)CC[C@H](NC(=O)CCCCCCCCCCCCCCCCC(=O)O)C(=O)O)C(=O)O)C(=O)O)C(=O)O)C(=O)O)CSSC[C@@H](C(=O)O)NC(=O)CNC(=O)[C@H](CC(C)C)NC(=O)CNC(=O)[C@H](CO)NC(=O)[C@H](CC(C)C)NC(=O)[C@H](CO)NC(=O)CNC1=O [Compound 9407] ({C18 diacid-γGlu-γGlu-γGlu-γGlu-γGlu-AEEA-AEEA-AEEA-AEEA}-ARKYKGAQKKGLSQGCFGLPLDRIGSLSGLGC-OH; disulfide 16-32) the “Fragments 2 W” value [1, 2] was 0.7, the “Isomers 2 W” value [1, 2] was 1.1 and the “Loss of 18 amu 2 W” value [1, 2] was 0. The Others 2 W [1, 2] was 0.3%, the “Fragments TZ” value [1, 2] was 0 and the “Isomers TZ” value [1, 2] was 0. For the same molecule, the “Loss of 18 amu TZ” value [1, 2] was 0, the Others TZ [1, 2] was 0.1% and the remaining at 1.5 h, 1000 nM (neprilysin (NEP)) was 96.6%.

In the case of CC[C@H](C)[C@@H]1NC(=O)[C@H](CCCNC(=N)N)NC(=O)[C@H](CC(=O)O)NC(=O)[C@H](CC(C)C)NC(=O)[C@@H]2CCCN2C(=O)[C@H](CC(C)C)NC(=O)CNC(=O)[C@H](Cc2ccccc2)NC(=O)[C@@H](NC(=O)CNC(=O)[C@H](CCC(N)=O)NC(=O)[C@H](CO)NC(=O)CNC(=O)CNC(=O)[C@H](CCCCN)NC(=O)[C@H](CCCCN)NC(=O)[C@H](CCC(N)=O)NC(=O)[C@H](C)NC(=O)CNC(=O)[C@H](CCCCN)NC(=O)[C@H](Cc2ccc(O)cc2)NC(=O)COCCOCCNC(=O)COCCOCCNC(=O)COCCOCCNC(=O)COCCOCCNC(=O)CC[C@H](NC(=O)CC[C@H](NC(=O)CCCCCCCCCCCCCCCCC(=O)O)C(=O)O)C(=O)O)CSSC[C@@H](C(=O)O)NC(=O)CNC(=O)[C@H](CC(C)C)NC(=O)CNC(=O)[C@H](CO)NC(=O)[C@H](CC(C)C)NC(=O)[C@H](CO)NC(=O)CNC1=O [Compound 9435] ({C18 diacid-γGlu-γGlu-AEEA-AEEA-AEEA-AEEA}-YKGAQKKGGSQGCFGLPLDRIGSLSGLGC-OH; disulfide 13-29), the “Fragments 2 W” value [1, 3] was 0, the “Isomers 2 W” value [1, 3] was 0.6 and the “Loss of 18 amu 2 W” value [1, 3] was 4.1. For the same molecule, the Others 2 W [1, 3] was 0%, the “Fragments TZ” value [1, 3] was 0 and the “Isomers TZ” value [1, 3] was 0. The “Loss of 18 amu TZ” value [1, 3] was 0, the Others TZ [1, 3] was 0% and the remaining at 1.5 h, 1000 nM (neprilysin (NEP)) was 93.2%.

With CC[C@H](C)[C@@H]1NC(=O)[C@H](CCCNC(=N)N)NC(=O)[C@H](CC(=O)O)NC(=O)[C@H](CC(C)C)NC(=O)[C@@H]2CCCN2C(=O)[C@H](CC(C)C)NC(=O)CNC(=O)[C@H](Cc2ccccc2)NC(=O)[C@@H](NC(=O)CNC(=O)[C@H](CCC(N)=O)NC(=O)[C@H](CO)NC(=O)[C@H](CC(C)C)NC(=O)CNC(=O)[C@H](CCCCN)NC(=O)[C@H](CCCCN)NC(=O)[C@H](CCC(N)=O)NC(=O)[C@H](C)NC(=O)CNC(=O)[C@H](CCCCN)NC(=O)[C@H](Cc2ccc(O)cc2)NC(=O)COCCOCCNC(=O)COCCOCCNC(=O)COCCOCCNC(=O)COCCOCCNC(=O)CC[C@H](NC(=O)CC[C@H](NC(=O)CC[C@H](NC(=O)CCCCCCCCCCCCCCCCC(=O)O)C(=O)O)C(=O)O)C(=O)O)CSSC[C@@H](C(=O)O)NC(=O)CNC(=O)[C@H](CC(C)C)NC(=O)CNC(=O)[C@H](CO)NC(=O)[C@H](CC(C)C)NC(=O)[C@H](CO)NC(=O)CNC1=O [Compound 9480] ({C18 diacid-γGlu-γGlu-γGlu-AEEA-AEEA-AEEA-AEEA}-YKGAQKKGLSQGCFGLPLDRIGSLSGLGC-OH; disulfide 13-29) the “Fragments 2 W” value [1, 2] was 0, the “Isomers 2 W” value [1, 2] was 0 and the “Loss of 18 amu 2 W” value [1, 2] was 0. The Others 2 W [1, 2] was 0.6%, the “Fragments TZ” value [1, 2] was 0 and the “Isomers TZ” value [1, 2] was 0. For the same molecule, the “Loss of 18 amu TZ” value [1, 2] was 0, the Others TZ [1, 2] was 0% and the remaining at 1.5 h, 1000 nM (neprilysin (NEP)) was 98.3%.

In the case of CC[C@H](C)[C@@H]1NC(=O)[C@H](CCCNC(=N)N)NC(=O)[C@H](CC(=O)O)NC(=O)[C@H](CC(C)C)NC(=O)[C@@H]2CCCN2C(=O)[C@H](CC(C)C)NC(=O)CNC(=O)[C@H](Cc2ccccc2)NC(=O)[C@@H](NC(=O)CNC(=O)[C@H](CO)NC(=O)[C@H](CO)NC(=O)[C@H](CC(C)C)NC(=O)CNC(=O)[C@H](CCCCN)NC(=O)[C@H](CCCCN)NC(=O)[C@H](CCC(N)=O)NC(=O)[C@H](C)NC(=O)CNC(=O)[C@H](CCCCN)NC(=O)[C@H](Cc2ccc(O)cc2)NC(=O)[C@H](CCCCN)NC(=O)[C@H](CCCNC(=N)N)NC(=O)[C@H](C)NC(=O)[C@H](CCC(N)=O)NC(=O)[C@@H]2CCCN2C(=O)[C@H](Cc2c[nH]cn2)NC(=O)[C@H](CCC(=O)O)NC(=O)[C@H](CCC(N)=O)NC(=O)CC[C@H](NC(=O)CC[C@H](NC(=O)CC[C@H](NC(=O)CC[C@H](NC(=O)CC[C@H](NC(=O)CCCCCCCCCCCCCCCCC(=O)O)C(=O)O)C(=O)O)C(=O)O)C(=O)O)C(=O)O)CSSC[C@@H](C(=O)O)NC(=O)CNC(=O)[C@H](CC(C)C)NC(=O)CNC(=O)[C@H](CO)NC(=O)[C@H](CC(C)C)NC(=O)[C@H](CO)NC(=O)CNC1=O [compound 9482] ({C18 diacid-γGlu-γGlu-γGlu-γGlu-γGlu}-QEHPQARKYKGAQKKGLSSGCFGLPLDRIGSLSGLGC-OH; disulfide 21-37), the “Fragments 1 W” value ([1]; 6 week study, 1 week at 37° C.) was 0.20, the “Isomers 1 W” value ([1]; 6 week study, 1 week at 37° C.) was 0.00 and the “Loss of 18 amu 1 W” value ([1]; 6 week study, 1 week at 37° C.) was 0.00. The “Others 1 W” value ([1]; 6 week study, 1 week at 37° C.) was 0.30, the “Fragments 2 W” value ([1]; 6 week study) was 0.30 and the “Isomers 2 W” value ([1]; 6 week study) was 0.60. For the same molecule, the “Loss of 18 amu 2 W” value ([1]; 6 week study) was 0.10, the Others 2 W ([1]; 6 week study) was 0.3% and the “Fragments 3 W” value [1, 4] was 0.50. For the same molecule, the “Isomers 3 W” value [1, 4] was 1.20, the “Loss of 18 amu 3 W” value [1, 4] was 0.10 and the “Others 3 W” value [1, 4] was 0.30. The “Fragments 4 W” value [1, 5] was 0.90, the “Isomers 4 W” value [1, 5] was 1.70 and the “Loss of 18 amu 4 W” value [1, 5] was 0.20. The “Others 4 W” value [1, 5] was 0.50, the “Fragments 5 W” value [1, 6] was 0.80 and the “Isomers 5 W” value [1, 6] was 2.40. For the same molecule, the “Loss of 18 amu 5 W” value [1, 6] was 0.20, the “Others 5 W” value [1, 6] was 0.40 and the “Fragments 6 W” value [1, 7] was 1.20. The “Isomers 6 W” value [1, 7] was 3.90, the “Loss of 18 amu 6 W” value [1, 7] was 0.30 and the “Others 6 W” value [1, 7] was 0.50. For the same molecule, the “Fragments TZ” value ([1]; 6 week study) was 0.00, the “Isomers TZ” value ([1]; 6 week study) was 0.00 and the “Loss of 18 amu TZ” value ([1]; 6 week study) was 0.00. The Others TZ ([1]; 6 week study) was 0.2%.
